EP0259838A2, “Pharmaceutical composition containing A 1,4-dihydropyridine derivative and an acylated 1,2,3,4-tetrahydroisoquinoline-3-carboxylic acid” (priority 1986, dated 1988)

Assays:
Renal Hypertensive Rats = experiment: Antihypertensive activity in renal hypertensive rats (tail-cuff systolic blood pressure and heart rate); type: in vivo, rats (Male Sprague-Dawley); settings: single dose po, nicardipine 3 mg/kg, ACE inhibitor 10 mg/kg, combination 3 + 10 mg/kg, n = 6
Description: Twenty-four renal hypertensive rates (Male Sprague-Dawley, 140-170g) showing systolic blood pressure of 160 mmHg or greater were chosen for the study. Using the random block design, they were distributed into four groups: 3 groups for compound treatments and one for vehicle control. They were randomly assigned to the treatments. The test compounds were dissolved in deionized water at concentrations such that 1.0 ml of solution was administered per 100 grams of body weight.
At approximately 17 hours prior to dosing, food was removed from the rat cages. On the morning of testing, the rats were dosed with the assigned compound or vehicle by gavage. Immediately after dosing, the rats were put in restrainers and placed in a heated chamber, 30 degrees centrigrade, for four hours. After the four hour reading, the rats were returned to their home cage for 3 hours and then were put in the restrainer again for the hour 8 reading.
Using a tail blood pressure cuff, blood pressure curves and tail pulses were simultaneously monitored on a 4-channel MFE recorder digitized by a computer system. At least four consecutive traces (at 30 second intervals) were recorded for each rat at 1, 2, 4 and 8 hour post-dose.
The computer system has been programmed to find systolic blood pressure (mmHg) and heart rate (beats/min) for each recording and them calculate the mean SBP and the mean HR of each rat at each observation time. Manual editing and confirmation of the analyses were carried out by the investigator on any systolic blood pressure traces that were more than two standard deviations outside the mean blood pressure readings for that animal at a given time period.
The SBP's of the animals in each dose group were compared to the SBP's of the animals in the control group at each observation time using oneway analysis of variance. Significance was determined using the Dunnet test.

CD rats = settings: rat, in vivo; cited from earlier work

| SMILES | HR % Chg (Chg from Control) (Renal Hypertensive Rats; 1 Hr post-dose) [%] | HR b/min. Chg (Chg from Control) (Renal Hypertensive Rats; 1 Hr post-dose) [b/min.] | SBP % Chg (Chg from Control) (Renal Hypertensive Rats; 1 Hr post-dose) [%] | SBP mmHg Chg (Chg from Control) (Renal Hypertensive Rats; 1 Hr post-dose) [mmHg] | HR % Chg (Chg from Control) (Renal Hypertensive Rats; 2 Hr post-dose) [%] | HR b/min. Chg (Chg from Control) (Renal Hypertensive Rats; 2 Hr post-dose) [b/min.] | SBP % Chg (Chg from Control) (Renal Hypertensive Rats; 2 Hr post-dose) [%] | SBP mmHg Chg (Chg from Control) (Renal Hypertensive Rats; 2 Hr post-dose) [mmHg] | HR % Chg (Chg from Control) (Renal Hypertensive Rats; 4 Hr post-dose) [%] | HR b/min. Chg (Chg from Control) (Renal Hypertensive Rats; 4 Hr post-dose) [b/min.] | SBP % Chg (Chg from Control) (Renal Hypertensive Rats; 4 Hr post-dose) [%] | SBP mmHg Chg (Chg from Control) (Renal Hypertensive Rats; 4 Hr post-dose) [mmHg] | HR % Chg (Chg from Control) (Renal Hypertensive Rats; 8 Hr post-dose) [%] | HR b/min. Chg (Chg from Control) (Renal Hypertensive Rats; 8 Hr post-dose) [b/min.] | SBP % Chg (Chg from Control) (Renal Hypertensive Rats; 8 Hr post-dose) [%] | SBP mmHg Chg (Chg from Control) (Renal Hypertensive Rats; 8 Hr post-dose) [mmHg] | clinical sign noted previously in studies in rats (CD rats) |
| --- | --- | --- | --- | --- | --- | --- | --- | --- | --- | --- | --- | --- | --- | --- | --- | --- | --- |
| CCOC(=O)[C@H](CCc1ccccc1)N[C@@H](C)C(=O)N1Cc2cc(OC)c(OC)cc2C[C@H]1C(=O)O [2-{2-[(1-ethoxycarbonyl)-3-phenylpropyl]amino}-1-oxopropyl-1,2,3,4-tetrahydro-6,7-dimethoxy-3-isoquinoline carboxylic acid] | 29 | 87 | -8 | -14 | 4 | 11 | -7 | -13 | 4 | 10 | 3 | 4 | -11 | -33 | -7 | -12 |  |
| COC(=O)C1=C(C)NC(C)=C(C(=O)OCCN(C)Cc2ccccc2)C1c1cccc([N+](=O)[O-])c1 (stereo not drawn) [nicardipine, 2,6-dimethyl-4-(3ʹ-nitrophenyl)-1,4-dihydropyridine-3,5-dicarboxylic acid-3-methyl ester-5-β-(N-benzyl-N-methylamino)-ethyl ester] | 22 | 65 | -3 | -5 | 10 | 30 | -4 | -7 | 9 | 25 | -6 | -10 | -2 | -4 | -20 | -35 | pink skin (peripheral vasodilation) |
